Reference: patent publication US5283180A, “Bioluminescence method for the determination of pesticides” (priority 1992, dated 1994)
Like-named read-outs stand apart in the source and are kept apart here.

Legend:
[1] = system: Bee Brain Activity for Ac-luciferin (esterase activity of bee brain extract); type: biochemical, honey bees; details: for % activity: bee brain extract; for I50 (concentration of inhibitor which gives a 50% decrease in enzymatic activity as measured by bioluminescence): bee brain, Ac-luciferin substrate, 5 min
Experimental: (§1) 1. Sample is preincubated with a predetermined quantity (dilution 1:200) of brain preparation for 5 minutes.
(§2) 2. Luciferin acetate (200 pmoles) is added to the incubation mixture for additional 5 minutes.
(§3) 3. A portion of this […] mixture (100 μl) is withdrawn and added to the luciferase and ATP reaction mixture (1 ml).
(§4) 4. Bioluminescence reading for 2-5 seconds is monitored.
(§5) 5. The reading of the pesticide sample is compared to the control sample to quantitate the percent inhibition of the sample (see Tables 3, 4, 5 and 6) .
(§6) Insects are stored from at -20° C. or below. Insect heads are collected by dissection with a scalpel and placed in a 50 ml beaker containing approximately 15 ml ice cold 0.07M phosphate buffer, pH 7.0, containing 1 mM EDTA (ethylenediaminetetra acetic acid) and 1 μM phenylthiourea. The insect heads are gently homogenized at low speed in a Tekmar Tissumizer. Aliquots of this crude extract are transferred to microcentrifuge tubes and centrifuged. The supernatant is retained and applied to a sephadex G-25 column equilibrated with 0.07M phosphate buffer, pH 7.0, containing 1 mM EDTA and 1 μM phenylthiourea. Fractions are collected every 2 minutes and monitored for esterase activity using luciferin acetate as a substrate and measuring bioluminescence. Fractions with esterase activity are pooled and used as the insect head extract for use in the pesticide assay.
(§7) Notes: Brain extracts have been prepared primarily from honey bees, but also has been extracted from silkworm and blowflies. Protein concentration of the bee head extract is between 2 to 5 mg/ml. For the assay, 5 to 10 μl is used per assay.
(§8) 1. To 13×100 mm test tubes add 2 ml 0.07M phosphate buffer, pH 7.0. Add 25 μl positive pesticide control (organophosphate and/or carbamate pesticide), 25 μl water to negative control tube and 25 μl of test sample to another tube. If test sample contains solvent other than water, then use this solvent as the negative control tube.
(§9) 2. Add insert brain extract (5 or 10 μl depending on activity) to the 2 ml incubation mixture in step 1, vortex and incubate at 35° C. in temperature block for 10 minutes. Use timer with alarm to monitor time.
(§10) 3. At 10 minutes, add 25 μl 8.25 μM luciferin acetate solution to 2 ml incubation mixture in step 2. Reset timer to zero and restart timer.
(§11) 4. At 5 minutes, take 100 μl portion from each sample. Use separate pipette tip for each sample and add the 100 μl portion to separate 13×100 mm test tubes containing 1 ml of bioluminescence buffer.
(§12) 5. Add 30 μl ATP solution followed by 30 μl luciferase solution to one of the assay tubes in step 4. Vortex and measure bioluminescence for 2 to 5 seconds. Record value and proceed to the next tubes as above.
6. […] In the positive samples the esterolitic activity of the bee extract will be inhibited and less luciferin will form giving a low bioluminescent reading. Divide sample reading or positive control by zero control and multiply to 100 to get percent inhibition.

[2] = system: Silkworm Brain Activities; assay: Bioluminescence pesticide assay: inhibition of silkworm brain activities; type: biochemical; details: pesticide at 25 PPB
Experimental: as §1, §2, §3, §4, §5, §6, §7, §8, §9, §10, §11, §12
6. Zero control bioluminescence reaction will be uninhibited by pesticide and will have a high bioluminescence reading. In the positive samples the esterolitic activity of the bee extract will be inhibited and less luciferin will form giving a low bioluminescent reading. Divide sample reading or positive control by zero control and multiply to 100 to get percent inhibition.

| SMILES | % activity ([1]; 12.5 ppb pesticide) [%] | % activity ([1]; 25 ppb pesticide) [%] | I50 (concentration of inhibitor which gives a 50% decrease in enzymatic activity as measured by bioluminescence) [1] [ppb] | % activity ([1]; 6.25 ppb pesticide) [%] | % activity ([1]; 0.625 ppb pesticide) [%] | % activity ([1]; 1.25 ppb pesticide) [%] | % activity ([1]; 2.5 ppb pesticide) [%] | % activity ([1]; 3.125 ppb pesticide) [%] | % Inhibition [2] [%] | further results |
| --- | --- | --- | --- | --- | --- | --- | --- | --- | --- | --- |
| CNC(=O)Oc1cccc2c1OC(C)(C)O2 [Bendocarb] | 50 | 26 | 12 | – | – | – | – | – | – | % activity ([1]; 50 ppb pesticide): 18%; % activity ([1]; 100 ppb pesticide): 11% |
| CNC(=O)Oc1cccc2c1OC(C)(C)C2 [Carbofuran] | 41 | 32 | 8 | 59 | – | – | – | – | – | % activity ([1]; 50 ppb pesticide): 22% |
| CCOP(=S)(OCC)Oc1nc(Cl)c(Cl)cc1Cl [Chlorpyrifos] | – | – | 1 | 10 | 68 | 34 | 24 | 13 | – | – |
| COP(=O)(OC)OC=C(Cl)Cl [DDVP] | – | – | 0.004 | – | – | – | – | – | 100.0 | % activity ([1]; 0.0013 ppb pesticide): 74%; % activity ([1]; 0.0023 ppb pesticide): 49%; % activity ([1]; 0.0028 ppb pesticide): 60%; % activity ([1]; 0.0057 ppb pesticide): 52%; % activity ([1]; 0.011 ppb pesticide): 25% |
| CCOP(=S)(OCC)Oc1cc(C)nc(C(C)C)n1 [Diazinon] | – | 40 | 15 | – | – | – | – | – | 0 | % activity ([1]; 100 ppb pesticide): 28% |
| CCOP(=S)(OCC)SCCSCC [Disulfoton] | 35 | 19 | 5 | 47 | – | – | – | 66 | 25 | – |
| CCOP(=S)(OCC)SCSP(=S)(OCC)OCC [Ethion] | – | – | 2 | – | 71 | 65 | 37 | – | 77.0 | % activity ([1]; 0.3125 ppb pesticide): 84% |
| CCOC(=O)CC(SP(=S)(OC)OC)C(=O)OCC (stereo not shown) [Malathion] | 50 | 27 | 6 | 53 | – | – | – | – | – | % activity ([1]; 50 ppb pesticide): 27% |
| CNC(=O)ON=C(C)SC [Methomyl] | 20 | 12 | 4 | 16 | – | – | – | 45 | – | – |
| COP(=S)(OC)Oc1ccc([N+](=O)[O-])cc1 [Methyl parathion] | – | – | 1 | – | 62 | 40 | 23 | – | 0 | – |
| COC(=O)C=C(C)OP(=O)(OC)OC [Mevinphos] | – | – | 2 | 9 | 52 | 48 | 24 | 12 | 50 | % activity ([1]; 0.3125 ppb pesticide): 64% |
| COP(=O)(OC)OC(Br)C(Cl)(Cl)Br (stereo not shown) [Naled] | – | – | 0.05 | – | 29 | – | – | – | 98.0 | % activity ([1]; 0.031 ppb pesticide): 50%; % activity ([1]; 0.125 ppb pesticide): 30%; % activity ([1]; 0.250 ppb pesticide): 25% |
| CC[S+]([O-])CCSP(=O)(OC)OC (stereo not shown) [Oxydemeton-methyl] | – | 21 | 1 | – | 43 | 47 | 37 | – | 0 | % activity ([1]; 0.3125 ppb pesticide): 90% |
| CCOP(=S)(OCC)SCSCC [Phorate] | 3 | – | 2 | 8 | – | 70 | 29 | 23 | 50.5 | – |
| CNC(=O)Oc1ccccc1OC(C)C [Propoxur] | 43 | 44 | 10 | – | – | – | – | – | – | % activity ([1]; 3.1 ppb pesticide): 62%; % activity ([1]; 62.5 ppb pesticide): 29%; % activity ([1]; 125.0 ppb pesticide): 27% |
